How the values were obtained:
rat cornea = conditions: topical application onto the rat cornea, cited from earlier work
acute pain = conditions: 34 subjects
Experimental: As indicated, 10 mL of venous blood was collected throughout the study period, at time intervals likely to capture peak and trough levels (Greenblatt D J et al. (1985). Arch Otolaryngol 111: 2988-3000); (Baumann L S, et al. (2010). J Drugs Dermatol 9: 1500-1504). Each subject provided self-rated pain evaluations at those same time intervals, focusing on pain at the identified site of acute pain and of drug application, using the 1-10 Visual Analog Scale (VAS) (Meier T, et al. (2003). Pain 106: 151-158).
The central data used to describe efficacy was the 10-point VAS. While this measure is subjective, the study subjects were requested specifically to be consistent in their pain estimates.

[1] = animal models, topical; cited from earlier work

Compound: O=C(O)CN(CCN(CC(=O)O)CC(=O)O)CC(=O)O [EDTA, ethylenediaminetetraacetic acid]
- Ocular uptake of C14 EDTA, applied with MSM (rat cornea; with MSM): uptake of the C^14 EDTA in all tested ocular tissues
- Ocular penetration of EDTA, without MSM (rat cornea; without MSM): did not penetrate the eye

Compound: CCN(CC)CC(=O)Nc1c(C)cccc1C [lidocaine, 2-(diethylamino)-N-(2,6-dimethylphenyl)acetamide]
- Number of subjects with maximum pain relief at the 1 hour point (acute pain; doses at 0 and 4 h): 9 subjects
- Subjects whose time elapsed to reach maximal pain reduction was 1 h (acute pain; doses at 0 and 4 h): 27%
- Subjects whose time elapsed to reach maximal pain reduction was 3 h (acute pain; doses at 0 and 4 h): 21%
- Subjects whose time elapsed to reach maximal pain reduction was 5 h (acute pain; doses at 0 and 4 h): 18%
- Subjects whose time elapsed to reach maximal pain reduction was 7 h (acute pain; doses at 0 and 4 h): 9%
- Subjects whose time elapsed to reach maximal pain reduction was 9 h (acute pain; doses at 0 and 4 h): 12%
- Subjects whose time elapsed to reach maximal pain reduction was 11 h (acute pain; doses at 0 and 4 h): 6%
- Number of subjects with pain relief at 50% or better (acute pain; maximal pain reduction): 28 of 34
- Subjects with pain reduction of 50% or greater (acute pain; maximal pain reduction): 82%

Compound: methylsulfonylmethane [MSM]
- Toxicity when administered topically (in words) [1]: very low toxicity
